In one series the target is ACAT (blood vessel wall). Put plainly: ACAT inhibitory action, microsome enzyme from blood vessel wall (stethartery). It counts as biochemical, rabbits. The settings on record: for IC50: A = the blood vessel wall, microsome from stethartery of rabbits fed 1% cholesterol feed, 14C-oleoyl-CoA, 37°C, five minutes; for IC50 (B) /IC50 (A): ratio small intestine / blood vessel wall. As for the experimental part:
(§1) Microsome was prepared by a conventional method from stethartery of rabbits fed for eight weeks with a 1% cholesterol feed and was suspended in a 0.15M phosphate buffer (pH 7.4) to provide an enzyme solution. An enzyme solution derived from small intestine was prepared from small intestine or rabbits fed with normal feed. […] The solvent layer was concentrated to dryness, the residue was dissolved in hexane and the solution was spotted on a TLC plate (manufactured by Merck) followed by developing with hexane : ether : acetic acid (75:25:1). Radioactivity of the resulting cholesterol ester fraction was measured by a BAS 2000 (manufactured by Fuji Photo Film) and IC50 values were determined from a comparative calculation with the control to which only DMSO was added.

The test system of a further series is J774 cells. Put plainly: ACAT inhibitory action (anti-foaming action) in J774 cells. The settings on record: for IC50 (HepG2) /IC50 (J774): ratio HepG2 / J774, 1080 min.
For the next series, the target named is ACAT (small intestine). The series can be described thus: ACAT inhibitory action, enzyme from small intestine. As to conditions: B = the small intestine of rabbits fed normal feed; 14C-oleoyl-CoA, 37°C, three minutes. It is filed as biochemical. As for the experimental part: as §1
Another series relates to HepG2 cells. The series can be described thus: ACAT inhibitory action (anti-foaming action) in HepG2 cells.
The nature of series [1]: Disintegration test: solubility in liquid No.1 for disintegration test of the Japanese Pharmacopoeia. As to conditions: jp disintegration liquid no.1; pH 1.2; liquid No.1, shaken two hours, room temperature one hour, 0.45 µm filter. It counts as physicochemical. As for the experimental part:
Absorbance of a mixture of this filtrate with methanol in the same amounts was measured and, from the previously-determined ε1% 1cm values, solubility was calculated.

[2] abbreviates: Mus musculus, J774, 18 h, read-out: Enzyme (J774) IC50(µM).
Setting [3] is: Homo sapiens, HepG2, 18 h, read-out: Enzyme (HepG2) IC50(µM).

Converted amounts (≈) assume the structure as drawn. Read-outs that look alike come from different tables or passages of the source.

Data on 9 compounds can be found in patent publication EP0987254B1, “NOVEL CYCLIC DIAMINE COMPOUNDS AND MEDICINE CONTAINING THE SAME” (Kowa Co., Ltd., priority 1997, dated 1998).

One may read the IC50 as the concentration needed to halve the response being measured. The solubility is how much of the substance goes into solution per volume.

Protocol for HepG2 cells: (§2) The medium was removed and, after washing with PBS twice, extraction was conducted with 1.5 ml of hexane : isopropanol (3:2) followed by concentrating to dryness. The extract was dissolved in 0.2 ml of isopropanol containing 10% of 10% Triton X-100 and total cholesterol (TC) and free cholesterol (FC) were determined by a Cholesterol E Test Wako (Wako Pure Chemicals) and a Free Cholesterol E Test Wako (Wako Pure Chemicals), respectively. Residue of the cells after extraction was solubilized with 0.25 ml of 2N NaOH at 30°C for 30 minutes and amount of protein was determined by means of a BCA Protein Assay Reagent (Pierce). From the difference between TC and FC, amount of cholesterol ester per protein was calculated and then IC50 was determined by means of a comparative calculation with the control.
Protocol for J774 cells: as §2

For `CC(C)c1cccc(C(C)C)c1NC(=O)C(C)(C)CCCOc1ccc2c(c1)C=C(c1nccn1C)C(CCc1ccc(F)cc1)O2` (stereo not shown) [Control 1, 5-[2-(2-(4-Fluorophenyl)ethyl)-3-(1-methyl-1H-imidazol-2-yl)-2H-1-benzopyran-6-yl]oxy-2,2-dimethyl-N-(2,6-diisopropylphenyl) -pentanamide, reference compound], the IC50 on ACAT (blood vessel wall) turned out to be 450 nM; in the series with J774 cells (setting [2]), 0.56 µM; against ACAT (small intestine), 870 nM. Also, in the series with ACAT (blood vessel wall), the “IC50 (B) /IC50 (A)” value stood at 1.9. The “IC50 (HepG2) /IC50 (J774)” value in the series on J774 cells is listed as 9.5.
As to `CCCCCCCCCN(CC(C)(C)C)C(=O)N[C@H]1CCCC[C@@H]1OC(=O)CCNC(=O)C1OC(C)(C)OCC1(C)C` (stereo partly shown) [Control 3, reference compound], the IC50 worked out at 34 nM at ACAT (blood vessel wall) and 56 nM against ACAT (small intestine).
Consider `CCCCCCCN(CCCCCSc1nc(-c2ccccc2)c(-c2ccccc2)[nH]1)c1nc2ccccc2o1` [Control 4, reference compound], for which the IC50 at ACAT (blood vessel wall) came to 26 nM; in the series on HepG2 cells (read-out: Enzyme (HepG2) IC50, HepG2 cells, 10 µg/ml 25-OH cholesterol, 18 hours, cholesterol ester per protein), 0.75 µM; with J774 cells (read-out: Enzyme (J774) IC50, J774 cells, 10 µg/ml 25-OH cholesterol, 18 hours, cholesterol ester per protein) it was 0.12 µM; on ACAT (small intestine) it was 37 nM. Further, the “IC50 (B) /IC50 (A)” value in the series with ACAT (blood vessel wall) was found to be 1.4. In addition, the “IC50 (HepG2) /IC50 (J774)” value in the series on J774 cells is given as 6.3.
With `CCCC(CCCCC(=O)Nc1c(C(C)C)cccc1C(C)C)Sc1nc2ccccc2o1` (stereo not shown) [Control 5, 6-(Benzoxazol-2-ylthio)-N-(2,6-diisopropylphenyl)nonanamide], the solubility in series [1] came to 0.05 µg/mL (≈ 0.107 µM).
Regarding `COC(=O)c1cccc2oc(SCCN3CCN(CC(=O)Nc4c(C(C)C)cccc4C(C)C)CC3)nc12` [Example 5, 2-[4-[2-(4-methoxycarbonylbenzoxazol-2-ylthio)ethyl]-piperazin-1-yl]-N-(2,6-diisopropylphenyl) acetamide], the values for the IC50 on ACAT (blood vessel wall) and against ACAT (small intestine) were 56 nM and 130 nM, respectively. For the same compound, the “IC50 (B) /IC50 (A)” value in the series with ACAT (blood vessel wall) was determined as 2.3. In the series on J774 cells, the “IC50 (HepG2) /IC50 (J774)” value came to 14.5.
The corresponding values for `COC(=O)c1cccc2nc(SCCCN3CCN(CC(=O)Nc4c(C(C)C)cccc4C(C)C)CC3)oc12` [Example 10, 2-[4-[3-(7-methoxycarbonylbenzoxazol - 2-ylthio)propyl]piperazin-1-yl]-N-(2,6-diisopropylphenyl) acetamide] are 35 nM, 39 nM, 1.1 and 18.2.
As to `COc1cc(C(C)C)c(NC(=O)CN2CCN(CCSc3nc4ccccc4o3)CC2)c(C(C)C)c1` [Example 75, 2-[4-[2-(benzoxazol-2-ylthio)ethyl]-piperazin-1-yl]-N-(2,6-diisopropyl-4-methoxyphenyl)-acetamide], the IC50 was 38 nM at ACAT (blood vessel wall), above 10 µM with HepG2 cells (setting [3]), 0.1 µM in the series with J774 cells (setting [2]) and 210 nM at ACAT (small intestine). Moreover, in the series with ACAT (blood vessel wall), the “IC50 (B) /IC50 (A)” value is given as 5.5. For the same compound, the “IC50 (HepG2) /IC50 (J774)” value with J774 cells is reported as above 100.
Take `CCOCCOc1cc(C(C)C)c(NC(=O)CN2CCN(CCSc3nc4ccccc4o3)CC2)c(C(C)C)c1` [Example 78, 2-[4-[2-(benzoxazol-2-ylthio)ethyl]piperazin-1-yl]-N-[2,6-diisopropyl-4-(2-ethoxyethyl)oxyphenyl)acetamide]: the IC50 against ACAT (blood vessel wall) came out at 40 nM; in the series on HepG2 cells (setting [3]), 0.82 µM; in the series with J774 cells (setting [2]) it was 0.014 µM; at ACAT (small intestine), 210 nM. Also, in the series on ACAT (blood vessel wall), the “IC50 (B) /IC50 (A)” value was determined as 5.3. In the series on J774 cells, the “IC50 (HepG2) /IC50 (J774)” value was 58.6.
In the case of `CC(C)c1cccc(C(C)C)c1NC(=O)CN1CCN(CCSc2nc3cccc(C(F)(F)F)c3o2)CC1` [Example 85, 2-[4-[2-(7-trifluoromethylbenzoxazol-2-ylthio)ethyl]piperazin-1-yl]-N-(2,6-diisopropylphenyl)acetamide], the IC50 at ACAT (blood vessel wall) was 12 nM; in the series on HepG2 cells (setting [3]), above 1 µM; in the series with J774 cells (setting [2]), 0.019 µM; against ACAT (small intestine) it was 59 nM. Moreover, the “IC50 (B) /IC50 (A)” value with ACAT (blood vessel wall) is recorded as 4.9. Besides, the “IC50 (HepG2) /IC50 (J774)” value in the series on J774 cells is given as above 53.
